The target of one data set is rat α3β4 nAChR (Rattus norvegicus, UniProt P04757+P12392). The note with it: cited from earlier work.
The target of the next data set is human α4β2-nAChRs (Homo sapiens, UniProt P17787+P43681). It counts as cell-based. To be noted: mixture of HS and LS α4β2-nAChRs; 10 min preincubation.
The test system of another data set is BALB/cJ male mice. The note with it: mouse.
The subject of another data set is Caco-2 cells. The data set can be described thus: bidirectional Caco-2 cell permeability assay. The note with it: Caco-2 bidirectional. The format is in vitro ADME.
Data set [1] can be described thus: bidirectional Caco-2 cell permeability assay. The format is in vitro ADME. The note with it: human, Caco-2, pH 7.4.
Data set [2] relates to strains TA98, TA100, TA1535, and TA1537. Nature of the data set: bacteria reversion mutation assay. To be noted: strain TA1537 in the presence of S9 fraction, 50 and 100 μM.
Data set [3] in a line: chemical stability on storage. The format is physicochemical. To be noted: stored at room temperature for several months.
Data set [4] has as its target α4β2*-nAChR, prepared from rat forebrain (Rattus norvegicus, UniProt P09483+P12390). The note with it: read-out: Ki α4β2*; cited from earlier work.
Another data set concerns the target rat α2β2 nAChR (Rattus norvegicus, UniProt P12389+P12390). To be noted: read-out: Ki α2β2; cited from earlier work.
Another data set concerns the target rat α4β2 nAChR (Rattus norvegicus, UniProt P09483+P12390). To be noted: read-out: Ki α4β2; cited from earlier work.
A further data set deals with rat α2β4 nAChR (Rattus norvegicus, UniProt P12389+P12392). The note with it: read-out: Ki α2β4; cited from earlier work.
The target in another data set is rat α4β4 nAChR (Rattus norvegicus, UniProt P09483+P12392). To be noted: read-out: Ki α4β4; cited from earlier work.
Another data set addresses rat α3β2 nAChR (Rattus norvegicus, UniProt P04757+P12390). The note with it: read-out: Ki α3β2; cited from earlier work.

Where two headings read alike, the source gives them in different places.

We go through 6 compounds from article PMC3843973 (Journal of medicinal chemistry, 2013).

Chain of rat α3β4 nAChR (P12392 21-495): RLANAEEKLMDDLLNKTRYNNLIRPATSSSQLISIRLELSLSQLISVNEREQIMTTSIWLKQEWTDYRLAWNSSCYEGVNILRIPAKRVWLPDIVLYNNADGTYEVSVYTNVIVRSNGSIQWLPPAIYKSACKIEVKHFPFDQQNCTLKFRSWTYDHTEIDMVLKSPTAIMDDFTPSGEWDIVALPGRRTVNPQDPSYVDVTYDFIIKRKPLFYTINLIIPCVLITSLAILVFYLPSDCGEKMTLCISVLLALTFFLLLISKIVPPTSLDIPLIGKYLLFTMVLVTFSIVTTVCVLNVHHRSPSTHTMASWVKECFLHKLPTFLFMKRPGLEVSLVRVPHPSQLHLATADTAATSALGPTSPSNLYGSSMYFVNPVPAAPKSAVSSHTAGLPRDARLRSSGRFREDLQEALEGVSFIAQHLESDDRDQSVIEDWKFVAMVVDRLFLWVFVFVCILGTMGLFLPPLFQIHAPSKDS
Chain of rat α3β4 nAChR (P04757 26-499): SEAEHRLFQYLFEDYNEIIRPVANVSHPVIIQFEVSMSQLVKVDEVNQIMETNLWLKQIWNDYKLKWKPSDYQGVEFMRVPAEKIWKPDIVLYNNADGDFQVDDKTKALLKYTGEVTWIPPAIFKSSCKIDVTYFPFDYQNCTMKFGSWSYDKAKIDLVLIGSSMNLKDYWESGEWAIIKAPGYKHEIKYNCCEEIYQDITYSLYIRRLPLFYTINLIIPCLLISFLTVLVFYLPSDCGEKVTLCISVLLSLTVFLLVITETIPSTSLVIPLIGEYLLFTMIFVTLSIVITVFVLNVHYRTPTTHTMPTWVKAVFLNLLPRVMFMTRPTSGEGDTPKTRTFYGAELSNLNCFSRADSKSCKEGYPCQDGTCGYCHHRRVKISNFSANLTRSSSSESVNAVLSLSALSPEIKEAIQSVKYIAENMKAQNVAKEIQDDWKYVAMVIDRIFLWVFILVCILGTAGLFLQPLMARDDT
Chain of α4β2*-nAChR, prepared from rat forebrain (P09483 31-630): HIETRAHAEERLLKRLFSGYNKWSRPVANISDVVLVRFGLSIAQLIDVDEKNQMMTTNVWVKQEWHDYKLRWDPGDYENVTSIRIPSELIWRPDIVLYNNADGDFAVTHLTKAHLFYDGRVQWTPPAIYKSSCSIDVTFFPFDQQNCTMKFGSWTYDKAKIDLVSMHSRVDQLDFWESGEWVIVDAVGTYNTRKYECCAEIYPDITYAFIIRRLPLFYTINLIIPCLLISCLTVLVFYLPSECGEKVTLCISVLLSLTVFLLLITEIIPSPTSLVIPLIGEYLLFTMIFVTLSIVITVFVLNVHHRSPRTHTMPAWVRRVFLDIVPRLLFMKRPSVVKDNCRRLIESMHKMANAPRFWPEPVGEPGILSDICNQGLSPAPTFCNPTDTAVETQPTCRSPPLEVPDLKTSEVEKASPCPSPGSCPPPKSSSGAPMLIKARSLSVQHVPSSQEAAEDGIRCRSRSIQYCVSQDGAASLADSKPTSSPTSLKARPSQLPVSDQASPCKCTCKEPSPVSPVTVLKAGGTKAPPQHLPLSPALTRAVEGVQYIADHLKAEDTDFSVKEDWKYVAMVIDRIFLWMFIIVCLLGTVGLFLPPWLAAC
Chain of α4β2*-nAChR, prepared from rat forebrain (P12390 25-500): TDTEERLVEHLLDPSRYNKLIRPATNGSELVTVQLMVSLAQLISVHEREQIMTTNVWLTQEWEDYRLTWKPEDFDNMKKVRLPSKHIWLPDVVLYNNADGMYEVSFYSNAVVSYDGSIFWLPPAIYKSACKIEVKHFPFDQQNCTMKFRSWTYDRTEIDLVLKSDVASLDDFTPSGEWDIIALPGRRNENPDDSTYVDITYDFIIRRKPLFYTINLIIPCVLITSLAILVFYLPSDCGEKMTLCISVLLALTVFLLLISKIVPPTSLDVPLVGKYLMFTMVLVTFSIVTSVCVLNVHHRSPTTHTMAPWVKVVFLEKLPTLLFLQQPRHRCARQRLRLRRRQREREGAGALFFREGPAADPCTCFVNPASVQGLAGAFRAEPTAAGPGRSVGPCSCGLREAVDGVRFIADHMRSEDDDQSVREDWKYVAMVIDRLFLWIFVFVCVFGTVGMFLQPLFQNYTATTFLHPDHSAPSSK
Chain of rat α4β4 nAChR (P12392 21-495): as the sequence (P12392 21-495) above
Chain of rat α4β4 nAChR (P09483 31-630): as the sequence (P09483 31-630) above
Chain of rat α3β2 nAChR (P12390 25-500): as the sequence (P12390 25-500) above
Chain of rat α3β2 nAChR (P04757 26-499): as the sequence (P04757 26-499) above
Chain of rat α4β2 nAChR (P12390 25-500): as the sequence (P12390 25-500) above
Chain of rat α4β2 nAChR (P09483 31-630): as the sequence (P09483 31-630) above
Chain of human α4β2-nAChRs (P43681 29-627 limits assumed): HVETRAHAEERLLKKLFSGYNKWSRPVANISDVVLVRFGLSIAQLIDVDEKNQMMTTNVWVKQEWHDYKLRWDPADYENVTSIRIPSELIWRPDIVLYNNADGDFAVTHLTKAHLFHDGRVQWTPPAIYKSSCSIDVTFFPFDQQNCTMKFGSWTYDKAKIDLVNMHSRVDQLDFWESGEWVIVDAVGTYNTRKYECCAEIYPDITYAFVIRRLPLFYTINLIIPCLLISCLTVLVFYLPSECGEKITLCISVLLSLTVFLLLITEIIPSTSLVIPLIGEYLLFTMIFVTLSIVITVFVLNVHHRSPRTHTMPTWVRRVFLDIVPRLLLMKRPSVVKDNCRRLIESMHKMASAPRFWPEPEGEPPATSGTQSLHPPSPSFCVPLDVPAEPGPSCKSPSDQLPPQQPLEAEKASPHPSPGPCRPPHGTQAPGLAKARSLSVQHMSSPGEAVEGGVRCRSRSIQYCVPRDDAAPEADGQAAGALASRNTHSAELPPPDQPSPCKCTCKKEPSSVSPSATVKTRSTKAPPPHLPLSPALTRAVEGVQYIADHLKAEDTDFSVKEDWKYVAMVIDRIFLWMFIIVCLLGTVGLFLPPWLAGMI
Chain of human α4β2-nAChRs (P17787 26-502): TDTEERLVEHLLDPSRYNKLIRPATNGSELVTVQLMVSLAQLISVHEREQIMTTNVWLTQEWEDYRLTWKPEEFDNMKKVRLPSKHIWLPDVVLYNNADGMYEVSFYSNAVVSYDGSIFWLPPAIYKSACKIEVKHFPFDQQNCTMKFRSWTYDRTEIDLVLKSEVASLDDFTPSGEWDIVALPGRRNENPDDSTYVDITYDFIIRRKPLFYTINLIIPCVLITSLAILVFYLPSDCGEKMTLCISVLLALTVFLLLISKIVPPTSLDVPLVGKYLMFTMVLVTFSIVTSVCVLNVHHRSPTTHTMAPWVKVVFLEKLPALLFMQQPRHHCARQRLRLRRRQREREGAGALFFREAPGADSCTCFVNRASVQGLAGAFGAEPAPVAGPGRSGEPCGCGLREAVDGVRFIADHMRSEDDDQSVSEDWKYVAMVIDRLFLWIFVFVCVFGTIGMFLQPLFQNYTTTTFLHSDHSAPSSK
Chain of rat α2β4 nAChR (P12389 28-511): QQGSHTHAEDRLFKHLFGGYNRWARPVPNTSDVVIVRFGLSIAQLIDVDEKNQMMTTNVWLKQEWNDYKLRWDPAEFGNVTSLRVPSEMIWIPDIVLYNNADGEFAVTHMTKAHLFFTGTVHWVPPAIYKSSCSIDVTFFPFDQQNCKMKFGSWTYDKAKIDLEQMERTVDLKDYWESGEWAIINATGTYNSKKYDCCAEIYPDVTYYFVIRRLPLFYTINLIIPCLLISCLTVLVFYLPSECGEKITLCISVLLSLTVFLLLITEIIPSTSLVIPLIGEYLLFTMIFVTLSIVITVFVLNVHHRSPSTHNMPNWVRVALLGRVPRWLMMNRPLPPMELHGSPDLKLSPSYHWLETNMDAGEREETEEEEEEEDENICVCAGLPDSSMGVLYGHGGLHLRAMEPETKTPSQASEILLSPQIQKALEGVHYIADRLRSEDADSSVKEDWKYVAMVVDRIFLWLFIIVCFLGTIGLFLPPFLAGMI
Chain of rat α2β4 nAChR (P12392 21-495): as the sequence (P12392 21-495) above
Chain of rat α2β2 nAChR (P12389 28-511): as the sequence (P12389 28-511) above
Chain of rat α2β2 nAChR (P12390 25-500): as the sequence (P12390 25-500) above

On to `COCC[C@H]1C[C@@H]1c1cncc(OC[C@@H]2CCN2)c1` [Compound 4], for which the “Ki α3β4” value at rat α3β4 nAChR was “NA (not active, defined as < 50% binding in the primary assay at 10 μM)”. The “Inactivation α4β2 Efficacy” value on human α4β2-nAChRs amounted to 71 ± 5.5%.
Take `COCC[C@H]1C[C@@H]1c1cncc(OC[C@@H]2CCCN2)c1.O=C(O)C(F)(F)F` [Compound 24, 3-[(2(S)-Pyrrolidinyl)methoxy]-5-[(1S,2R)-2-(2-methoxyethyl)cyclopropyl]pyridine Trifluoroacetate]: the “effect in the forced swim test” value in the data set on BALB/cJ male mice (in vivo) was “no significant effects”.
Regarding `COCC[C@H]1C[C@@H]1c1cncc(OC[C@@H]2CCCN2C)c1.O=C(O)C(F)(F)F` [Compound 26, 3-[(1-Methyl-2(S)-pyrrolidinyl)methoxy]-5-[(1S,2R)-2-(2-methoxyethyl)cyclopropyl]pyridine Trifluoroacetate], the permeability class result in the data set with Caco-2 cells is on record as “high permeability”. In addition, the efflux ratio in [1] was determined as 0.2. For the same compound, the “minimal dose with significant reduction in immobility” value in the data set with BALB/cJ male mice (in vivo, ip) amounted to 1 mg/kg; with BALB/cJ male mice (in vivo, po) it was 1 mg/kg. Further, the “Ames test mutagenic potential” value in data set [2] is “positive significance”. In data set [3], the chemical stability result is “little or no sign of decomposition”.
For `COCC[C@H]1C[C@@H]1c1cncc(OC[C@H]2CCNC2)c1.O=C(O)C(F)(F)F` [Compound 30, 3-[(3(S)-Pyrrolidinyl)methoxy]-5-[(1S,2R)-2-(2-methoxyethyl)cyclopropyl]pyridine Trifluoroacetate], the abnormal behavioral effects entry with BALB/cJ male mice (intraperitoneal, 5 mg/kg) was “sedation and tremor”.
Turning to `OCCCCC#Cc1cncc(OC[C@@H]2CCN2)c1` [saz-A, sazetidine-A], the Ki is 0.17 nM in data set [4]; 0.087 nM at rat α2β2 nAChR; 0.062 nM on rat α4β2 nAChR; 1900 nM at rat α3β4 nAChR (read-out: Ki α3β4); 210 nM on rat α2β4 nAChR; 52 nM at rat α4β4 nAChR. The Ki at rat α3β2 nAChR is 0.38 nM.
With `CN[C@H]1CC[C@@H](c2ccc(Cl)c(Cl)c2)c2ccccc21` [sertraline, reference compound], the “effect on immobility (positive control)” value with BALB/cJ male mice (20 mg/kg) is reported as “expected decrease in immobility”.
